Experimental findings from patent publication US9499550B2 (BRISTOL-MYERS SQUIBB COMPANY, priority 2012, dated 2016) are described below.

Like-named read-outs stand apart in the source and are kept apart here.

A word on the EC50: it is the concentration giving half of the maximal effect.

Assay [1] has as its system HCV genotype 1b (Con1) replicon in HUH-7 cells. Briefly: HCV replicon luciferase reporter assay, genotype 1b. The assay is classed as cell-based. As to conditions: Hepatitis C virus, Huh-7, 72 h, HCV genotype 1b replicon luciferase, 3 days incubation, read-out: LE_1b (EC50, range). The procedure, abridged:
(§1)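 Replicon inhibition for both genotypes was measured as Renilla luciferase signal (EnduRen, 7.5 μM final, 2 h) after 3-day, 37° C exposure of replicon-bearing HUH-7 cells in 4% FCS DMEM, 0.5% DMSO. The 1b construct carries S1179I; the 1a H77 construct carries P1496L and S2204I. Twenty-point, 3-fold dilutions were fitted four-parametrically for EC50, and CC50 was taken from multiplexed Cell Titer-Blue.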

The test system of assay [2] is HCV genotype 1a (H77 strain) replicon in HUH-7 cells. Put plainly: HCV replicon luciferase reporter assay, genotype 1a. It is filed as cell-based. As to conditions: Hepatitis C virus, Huh-7, 72 h, HCV genotype 1a replicon luciferase, 3 days incubation, read-out: LE_1a (EC50, range). The essentials: as §1
In general terms: A replicon is a self-replicating genome or part of one, used to study replication in cells.

On to `CC[C@@H]1C[C@H](C)CC/C=C\[C@@H]2C[C@@]2(C(=O)NS(=O)(=O)C2(C)CC2)NC(=O)[C@@H]2C[C@@H](Oc3cnnc4cc(OC)ccc34)CN2C(=O)[C@H]1NC(=O)OC(C)(C)C` [Compound 4321, tert-butyl ((2R,6S,7R,9R,13aS,14aR,16aS,Z)-7-ethyl-2-((7-methoxycinnolin-4-yl)oxy)-9-methyl-14a-(((1-methylcyclopropyl)sulfonyl)carbamoyl)-5,16-dioxo-1,2,3,5,6,7,8,9,10,11,13a,14,14a,15,16,16a-hexadecahydrocyclopropa[e]pyrrolo[1,2-a][1,4]diazacyclopentadecin-6-yl)carbamate], for which the EC50 in assay [1] and in assay [2] was 5.01 to 35 nM throughout.
Turning to `COc1ccc2c(O[C@@H]3C[C@H]4C(=O)N[C@]5(C(=O)NS(=O)(=O)C6(C)CC6)C[C@H]5/C=C\CC[C@@H](C)C[C@@H](C)[C@H](NC(=O)OC(C)(C)C(F)(F)F)C(=O)N4C3)cnnc2c1` [Compound 4322], the EC50 in assay [1] (GETYPE1B) and in assay [2] (GETYPE1A) was 5.01 to 35 nM in each case.
Regarding `CC[C@@H]1C[C@H](C)CC/C=C\[C@@H]2C[C@@]2(C(=O)NS(=O)(=O)C2(C)CC2)NC(=O)[C@@H]2C[C@@H](Oc3ncc(OC)c4ccc(F)cc34)CN2C(=O)[C@H]1NC(=O)C1(C(F)(F)F)CC1` [Compound 4323, (2R,6S,7R,9R,13aS,14aR,16aS,Z)-7-ethyl-2-((7-fluoro-4-methoxyisoquinolin-1-yl)oxy)-9-methyl-N-((1-methylcyclopropyl)sulfonyl)-5,16-dioxo-6-(1-(trifluoromethyl)cyclopropanecarboxamido)-1,2,3,5,6,7,8,9,10,11,13a,14,14a,15,16,16a-hexadecahydrocyclopropa[e]pyrrolo[1,2-a][1,4]diazacyclopentadecine-14a-carboxamide], the half-maximal effective concentration (EC50) lay within 0.51 to 1 nM in assay [1] and 1.01 to 5 nM in assay [2].
For `CC[C@@H]1C[C@H](C)CC/C=C\[C@@H]2C[C@@]2(C(=O)NS(=O)(=O)C2(C)CC2)NC(=O)[C@@H]2C[C@@H](Oc3ncc(OC)c4ccc(F)cc34)CN2C(=O)[C@H]1NC(=O)C(C)(C)C(F)(F)F` [Compound 4324, (2R,6S,7R,9R,13aS,14aR,16aS,Z)-7-ethyl-2-((7-fluoro-4-methoxyisoquinolin-1-yl)oxy)-9-methyl-N-((1-methylcyclopropyl)sulfonyl)-5,16-dioxo-6-(3,3,3-trifluoro-2,2-dimethylpropanamido)-1,2,3,5,6,7,8,9,10,11,13a,14,14a,15,16,16a-hexadecahydrocyclopropa[e]pyrrolo[1,2-a][1,4]diazacyclopentadecine-14a-carboxamide], the values for the EC50 in assay [1] and in assay [2] were 0.51 to 1 nM and 1.01 to 5 nM, respectively.
Regarding `CC[C@@H]1C[C@H](C)CC/C=C\[C@@H]2C[C@@]2(C(=O)NS(=O)(=O)C2(CO)CC2)NC(=O)[C@@H]2C[C@@H](Oc3nccc4cc(OC)c(F)cc34)CN2C(=O)[C@H]1NC(=O)OC(C)(C)C(F)(F)F` [Compound 4325], the half-maximal effective concentration (EC50) in assay [1] (GETYPE1B) was in the range of 5.01 to 35 nM; in assay [2] (GETYPE1A), 35 to 620 nM.
The matching figures for `CC[C@@H]1C[C@@H](C)CC/C=C\[C@@H]2C[C@@]2(C(=O)NS(=O)(=O)C2(CO)CC2)NC(=O)[C@@H]2C[C@@H](Oc3nccc4cc(OC)c(F)cc34)CN2C(=O)[C@H]1NC(=O)OC(C)(C)C(F)(F)F` [Compound 4326]: 35 to 620 nM and 35 to 620 nM.
The like results for `CC[C@@H]1C[C@H](C)CC/C=C\[C@@H]2C[C@@]2(C(=O)NS(=O)(=O)C2CC2)NC(=O)[C@@H]2C[C@@H](Oc3cnnc4cc(OC)ccc34)CN2C(=O)[C@H]1NC(=O)OC(C)(C)C(F)(F)F` [Compound 4327] were, in that order, 5.01 to 35 nM and 5.01 to 35 nM.
`CC[C@@H]1C[C@H](C)CC/C=C\[C@@H]2C[C@@]2(C(=O)NS(=O)(=O)C2(C)CC2)NC(=O)[C@@H]2C[C@@H](Oc3ncc(OC)c4ccc(F)cc34)CN2C(=O)[C@H]1NC(=O)N1CC(C)OC(C)C1` (stereo partly drawn) [Compound 4328, N-((2R,6S,7R,9R,13aS,14aR,16aS,Z)-7-ethyl-2-((7-fluoro-4-methoxyisoquinolin-1-yl)oxy)-9-methyl-14a-(((1-methylcyclopropyl)sulfonyl)carbamoyl)-5,16-dioxo-1,2,3,5,6,7,8,9,10,11,13a,14,14a,15,16,16a-hexadecahydrocyclopropa[e]pyrrolo[1,2-a][1,4]diazacyclopentadecin-6-yl)-2,6-dimethylmorpholine-4-carboxamide]: the EC50 in assay [1] and in assay [2] was 1.01 to 5 nM each time.
Take `CC[C@@H]1C[C@H](C)CC/C=C\[C@@H]2C[C@@]2(C(=O)NS(=O)(=O)C2(C)CC2)NC(=O)[C@@H]2C[C@@H](Oc3nccc4cc(OC)c(F)cc34)CN2C(=O)[C@H]1NC(=O)C1(C(F)(F)F)CC1` [Compound 4331, (2R,6S,7R,9R,13aS,14aR,16aS,Z)-7-ethyl-2-((7-fluoro-6-methoxyisoquinolin-1-yl)oxy)-9-methyl-N-((1-methylcyclopropyl)sulfonyl)-5,16-dioxo-6-(1-(trifluoromethyl)cyclopropanecarboxamido)-1,2,3,5,6,7,8,9,10,11,13a,14,14a,15,16,16a-hexadecahydrocyclopropa[e]pyrrolo[1,2-a][1,4]diazacyclopentadecine-14a-carboxamide]: the values for the EC50 in assay [1] and in assay [2] were 0.51 to 1 nM and 1.01 to 5 nM, respectively.
The matching figures for `CC[C@@H]1C[C@H](C)CC/C=C\[C@@H]2C[C@@]2(C(=O)NS(=O)(=O)C2(C)CC2)NC(=O)[C@@H]2C[C@@H](Oc3nccc4cc(OC)c(F)cc34)CN2C(=O)[C@H]1NC(=O)C(C)(C)C(F)(F)F` [Compound 4332, (2R,6S,7R,9R,13aS,14aR,16aS,Z)-7-ethyl-2-((7-fluoro-6-methoxyisoquinolin-1-yl)oxy)-9-methyl-N-((1-methylcyclopropyl)sulfonyl)-5,16-dioxo-6-(3,3,3-trifluoro-2,2-dimethylpropanamido)-1,2,3,5,6,7,8,9,10,11,13a,14,14a,15,16,16a-hexadecahydrocyclopropa[e]pyrrolo[1,2-a][1,4]diazacyclopentadecine-14a-carboxamide]: 1.01 to 5 nM and 1.01 to 5 nM.
The matching figures for `CC[C@@H]1C[C@H](C)CC/C=C\[C@@H]2C[C@@]2(C(=O)NS(=O)(=O)C2(C)CC2)NC(=O)[C@@H]2C[C@@H](Oc3nccc4cc(OC)c(F)cc34)CN2C(=O)[C@H]1NC(=O)N1CCOCC1` [Compound 4333, N-((2R,6S,7R,9R,13aS,14aR,16aS,Z)-7-ethyl-2-((7-fluoro-6-methoxyisoquinolin-1-yl)oxy)-9-methyl-14a-(((1-methylcyclopropyl)sulfonyl)carbamoyl)-5,16-dioxo-1,2,3,5,6,7,8,9,10,11,13a,14,14a,15,16,16a-hexadecahydrocyclopropa[e]pyrrolo[1,2-a][1,4]diazacyclopentadecin-6-yl)morpholine-4-carboxamide]: 5.01 to 35 nM and 5.01 to 35 nM.
The like results for `CC[C@@H]1C[C@H](C)CC/C=C\[C@@H]2C[C@@]2(C(=O)NS(=O)(=O)C2(C)CC2)NC(=O)[C@@H]2C[C@@H](Oc3nccc4cc(OC)c(F)cc34)CN2C(=O)[C@H]1NC(=O)N1CC(C)OC(C)C1` (stereo partly drawn) [Compound 4334, N-((2R,6S,7R,9R,13aS,14aR,16aS,Z)-7-ethyl-2-((7-fluoro-6-methoxyisoquinolin-1-yl)oxy)-9-methyl-14a-(((1-methylcyclopropyl)sulfonyl)carbamoyl)-5,16-dioxo-1,2,3,5,6,7,8,9,10,11,13a,14,14a,15,16,16a-hexadecahydrocyclopropa[e]pyrrolo[1,2-a][1,4]diazacyclopentadecin-6-yl)-2,6-dimethylmorpholine-4-carboxamide] were, in that order, 1.01 to 5 nM and 1.01 to 5 nM.
`CC[C@@H]1C[C@H](C)CC/C=C\[C@@H]2C[C@@]2(C(=O)NS(=O)(=O)C2(C)CC2)NC(=O)[C@@H]2C[C@@H](Oc3nccc4cc(OC)c(F)cc34)CN2C(=O)[C@H]1NC(=O)N1CCN(C)CC1` [Compound 4335, (2R,6S,7R,9R,13aS,14aR,16aS,Z)-7-ethyl-2-((7-fluoro-6-methoxyisoquinolin-1-yl)oxy)-9-methyl-N-((1-methylcyclopropyl)sulfonyl)-6-(4-methylpiperazine-1-carboxamido)-5,16-dioxo-1,2,3,5,6,7,8,9,10,11,13a,14,14a,15,16,16a-hexadecahydrocyclopropa[e]pyrrolo[1,2-a][1,4]diazacyclopentadecine-14a-carboxamide]: the EC50 in assay [1] and in assay [2] was 5.01 to 35 nM in each case.
Turning to `CC(C)Oc1ccc2nc(C(F)(F)F)c(O[C@@H]3C[C@H]4C(=O)N[C@]5(C(=O)NS(=O)(=O)C6(C)CC6)C[C@H]5/C=C\CC[C@@H](C)C[C@@H](C)[C@H](NC(=O)OC(C)(C)C(F)(F)F)C(=O)N4C3)nc2c1` [Compound 4336], the EC50 in assay [1] (GETYPE1B) and in assay [2] (GETYPE1A) was 0.51 to 1 nM each time.
Take `CC[C@@H]1C[C@H](C)CC/C=C\[C@@H]2C[C@@]2(C(=O)NS(=O)(=O)C2CC2)NC(=O)[C@@H]2C[C@@H](Oc3nc4cc(OC(C)C)ccc4nc3C(F)(F)F)CN2C(=O)[C@H]1NC(=O)OC(C)(C)C` [Compound 4337, tert-butyl ((2R,6S,7R,9R,13aS,14aR,16aS,Z)-14a-((cyclopropylsulfonyl)carbamoyl)-7-ethyl-2-((7-isopropoxy-3-(trifluoromethyl)quinoxalin-2-yl)oxy)-9-methyl-5,16-dioxo-1,2,3,5,6,7,8,9,10,11,13a,14,14a,15,16,16a-hexadecahydrocyclopropa[e]pyrrolo[1,2-a][1,4]diazacyclopentadecin-6-yl)carbamate]: the concentration for a half-maximal effect (EC50) in assay [1] and in assay [2] was 0.51 to 1 nM each time.
